Reference: the NIST ThermoML archive (doi:10.1016/j.tca.2016.07.008)
Numbers after ± are expanded uncertainties.

Assays:
[1] = Molar enthalpy of transition or fusion; conditions: Crystal; DSC
[2] = Crystal; DTA

| Molar enthalpy of transition or fusion [1] | Normal melting temperature [2] | SMILES |
| --- | --- | --- |
| 10.9 ± 0.239 kcal/mol | 248.20 ± 2 °C | O=C(N/N=C/c1ccccc1O)c1ccncc1 [N'-(2-hydroxybenzylidene)isonicotinohydrazide] |
| 11.9 ± 0.263 kcal/mol | 236.70 ± 2 °C | COc1cccc(/C=N/NC(=O)c2ccncc2)c1O [N'-(2-hydroxy-3-methoxybenzylidene)isonicotinohydrazide] |
